Results on four compounds are retold here after US11034650B2, “Compounds useful for treating a Mannheimia haemolytica or Histophilus somni infection” (Intervet Inc., priority 2016, dated 2021).

Structures are written as SMILES. Values after ≈ are worked out from the molar mass of the structure shown. Bounds are passed on as bounds.

For the first assay, the system named is Mannheimia haemolytica MH 6357 (M7/2, reference strain, cattle infection strain). Kind of assay: MIC, broth-microdilution (CLSI VET01-A4), strain MH 6357. Particulars: Mannheimia haemolytica strain MH 6357, broth-microdilution; unit assumed. Type of assay: cell-based. Put shortly: (§1)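 Growth inhibition is scored visually on a doubling dilution series. The reported MIC corresponds to the lowest concentration free of turbidity, with results assessed under CLSI VET01-S3.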
Take `CC(C)([C@H](NC(=O)c1ccc(C#Cc2ccc(CNCc3ccncc3)s2)cc1)C(=O)NO)S(C)(=O)=O` [Compound 317]: the MIC MH 6357 was found to be 0.2 µg/mL (≈ 0.37 µM).

For the compound `CC(C)[C@H](NC(=O)c1ccc(C#Cc2ccc(CNC3CCC3)cc2)cc1)C(=O)NO` [Compound 210], the MIC MH 6357 came out at 1.6 µg/mL (≈ 3.81 µM).

Regarding `CON=C(C)[C@H](NC(=O)c1ccc(C#Cc2ccc(CNCc3ccc(C)cc3)cc2)cc1)C(=O)NO` [Compound 393], the MIC MH 6357 was 0.8 µg/mL (≈ 1.6 µM).

Take `CC(C)(C(NC(=O)c1ccc(C#Cc2ccc(CNCc3cccs3)cc2)cc1)C(=O)NO)[N+](=O)[O-]` (stereo not shown) [Compound 289]: the MIC MH 6357 is 0.4 µg/mL (≈ 0.79 µM).

A further assay concerns Mannheimia haemolytica MH 6374 (ATCC 33396, reference strain). Kind of assay: MIC, broth-microdilution (CLSI VET01-A4), strain MH 6374. Type of assay: cell-based. The note with it: Mannheimia haemolytica strain MH 6374, broth-microdilution; unit assumed. Summed up:
as §1
In general terms: In broth dilution the organism is exposed to a series of concentrations in liquid medium.
In turn, `CC(C)([C@H](NC(=O)c1ccc(C#Cc2ccc(CNCc3ccncc3)s2)cc1)C(=O)NO)S(C)(=O)=O` [Compound 317] returned an MIC MH 6374 of 0.4 µg/mL (≈ 0.74 µM).

`CC(C)[C@H](NC(=O)c1ccc(C#Cc2ccc(CNC3CCC3)cc2)cc1)C(=O)NO` [Compound 210] came in with an MIC MH 6374 of 3.1 µg/mL (≈ 7.39 µM).

As for `CON=C(C)[C@H](NC(=O)c1ccc(C#Cc2ccc(CNCc3ccc(C)cc3)cc2)cc1)C(=O)NO` [Compound 393], the MIC MH 6374 is 1.6 µg/mL (≈ 3.21 µM).

For `CC(C)(C(NC(=O)c1ccc(C#Cc2ccc(CNCc3cccs3)cc2)cc1)C(=O)NO)[N+](=O)[O-]` (stereo not shown) [Compound 289], the MIC MH 6374 came out at 0.8 µg/mL (≈ 1.58 µM).

A further assay deals with Mannheimia haemolytica MH 10720 (154, BRD field isolate). Kind of assay: MIC, broth-microdilution (CLSI VET01-A4), strain MH 10720. Type of assay: cell-based. The note with it: Mannheimia haemolytica strain MH 10720, broth-microdilution; unit assumed. Put shortly: as §1
On to `CC(C)([C@H](NC(=O)c1ccc(C#Cc2ccc(CNCc3ccncc3)s2)cc1)C(=O)NO)S(C)(=O)=O` [Compound 317], for which the MIC MH 10720 was ≤ 0.1 µg/mL.

For `CC(C)[C@H](NC(=O)c1ccc(C#Cc2ccc(CNC3CCC3)cc2)cc1)C(=O)NO` [Compound 210], the MIC MH 10720 was 0.8 µg/mL (≈ 1.91 µM).

In the case of `CON=C(C)[C@H](NC(=O)c1ccc(C#Cc2ccc(CNCc3ccc(C)cc3)cc2)cc1)C(=O)NO` [Compound 393], the MIC MH 10720 turned out to be 0.8 µg/mL (≈ 1.6 µM).

On to `CC(C)(C(NC(=O)c1ccc(C#Cc2ccc(CNCc3cccs3)cc2)cc1)C(=O)NO)[N+](=O)[O-]` (stereo not shown) [Compound 289], for which the MIC MH 10720 was ≤ 0.1 µg/mL.

In a further assay the test system is Mannheimia haemolytica MH 12587 (1071, BRD field isolate, macrolide-resistance: erm+, E+). Kind of assay: MIC, broth-microdilution (CLSI VET01-A4), strain MH 12587. Particulars: Mannheimia haemolytica strain MH 12587, broth-microdilution; unit assumed. Type of assay: cell-based. Summed up:
as §1
`CC(C)([C@H](NC(=O)c1ccc(C#Cc2ccc(CNCc3ccncc3)s2)cc1)C(=O)NO)S(C)(=O)=O` [Compound 317]: the MIC MH 12587 amounted to 0.8 µg/mL (≈ 1.48 µM).

In turn, `CC(C)[C@H](NC(=O)c1ccc(C#Cc2ccc(CNC3CCC3)cc2)cc1)C(=O)NO` [Compound 210] yielded an MIC MH 12587 of 6.3 µg/mL (≈ 15 µM).

Regarding `CON=C(C)[C@H](NC(=O)c1ccc(C#Cc2ccc(CNCc3ccc(C)cc3)cc2)cc1)C(=O)NO` [Compound 393], the MIC MH 12587 worked out at 0.4 µg/mL (≈ 0.802 µM).

For `CC(C)(C(NC(=O)c1ccc(C#Cc2ccc(CNCc3cccs3)cc2)cc1)C(=O)NO)[N+](=O)[O-]` (stereo not shown) [Compound 289], the MIC MH 12587 was found to be 1.6 µg/mL (≈ 3.16 µM).

For a further assay, the system named is Mannheimia haemolytica MH 13065 (XB0446-6003.9, BRD field isolate). Kind of assay: MIC, broth-microdilution (CLSI VET01-A4), strain MH 13065. Type of assay: cell-based. The note with it: Mannheimia haemolytica strain MH 13065, broth-microdilution; unit assumed. Put shortly:
as §1
Compound `CC(C)([C@H](NC(=O)c1ccc(C#Cc2ccc(CNCc3ccncc3)s2)cc1)C(=O)NO)S(C)(=O)=O` [Compound 317] returned an MIC MH 13065 of 0.4 µg/mL (≈ 0.74 µM).

On to `CC(C)[C@H](NC(=O)c1ccc(C#Cc2ccc(CNC3CCC3)cc2)cc1)C(=O)NO` [Compound 210], for which the MIC MH 13065 was 1.6 µg/mL (≈ 3.81 µM).

Consider `CON=C(C)[C@H](NC(=O)c1ccc(C#Cc2ccc(CNCc3ccc(C)cc3)cc2)cc1)C(=O)NO` [Compound 393], for which the MIC MH 13065 came to 6.3 µg/mL (≈ 12.6 µM).

On to `CC(C)(C(NC(=O)c1ccc(C#Cc2ccc(CNCc3cccs3)cc2)cc1)C(=O)NO)[N+](=O)[O-]` (stereo not shown) [Compound 289], for which the MIC MH 13065 came to 0.8 µg/mL (≈ 1.58 µM).

The test system of the next assay is Mannheimia haemolytica MH 13093 (XB0472-6014.1, BRD field isolate). Kind of assay: MIC, broth-microdilution (CLSI VET01-A4), strain MH 13093. Type of assay: cell-based. Particulars: Mannheimia haemolytica strain MH 13093, broth-microdilution; unit assumed. Summed up: as §1
`CC(C)([C@H](NC(=O)c1ccc(C#Cc2ccc(CNCc3ccncc3)s2)cc1)C(=O)NO)S(C)(=O)=O` [Compound 317]: the MIC MH 13093 was found to be 0.4 µg/mL (≈ 0.74 µM).

Compound `CC(C)[C@H](NC(=O)c1ccc(C#Cc2ccc(CNC3CCC3)cc2)cc1)C(=O)NO` [Compound 210] registered an MIC MH 13093 of 3.1 µg/mL (≈ 7.39 µM).

`CON=C(C)[C@H](NC(=O)c1ccc(C#Cc2ccc(CNCc3ccc(C)cc3)cc2)cc1)C(=O)NO` [Compound 393] showed an MIC MH 13093 of 6.3 µg/mL (≈ 12.6 µM).

Regarding `CC(C)(C(NC(=O)c1ccc(C#Cc2ccc(CNCc3cccs3)cc2)cc1)C(=O)NO)[N+](=O)[O-]` (stereo not shown) [Compound 289], the MIC MH 13093 amounted to 0.8 µg/mL (≈ 1.58 µM).

For the next assay, the system named is Pasteurella multocida PM 6267 (P 2225 (L386), reference strain, mouse infection strain). Kind of assay: MIC, broth-microdilution (CLSI VET01-A4), strain PM 6267. Type of assay: cell-based. Particulars: Pasteurella multocida strain PM 6267, broth-microdilution; unit assumed. Summed up:
as §1
Regarding `CC(C)([C@H](NC(=O)c1ccc(C#Cc2ccc(CNCc3ccncc3)s2)cc1)C(=O)NO)S(C)(=O)=O` [Compound 317], the MIC PM 6267 stood at 0.2 µg/mL (≈ 0.37 µM).

As for `CC(C)[C@H](NC(=O)c1ccc(C#Cc2ccc(CNC3CCC3)cc2)cc1)C(=O)NO` [Compound 210], the MIC PM 6267 was ≤ 0.1 µg/mL.

In the case of `CON=C(C)[C@H](NC(=O)c1ccc(C#Cc2ccc(CNCc3ccc(C)cc3)cc2)cc1)C(=O)NO` [Compound 393], the MIC PM 6267 is 6.3 µg/mL (≈ 12.6 µM).

`CC(C)(C(NC(=O)c1ccc(C#Cc2ccc(CNCc3cccs3)cc2)cc1)C(=O)NO)[N+](=O)[O-]` (stereo not shown) [Compound 289] came in with an MIC PM 6267 of 0.8 µg/mL (≈ 1.58 µM).

A further assay deals with Pasteurella multocida PM 6391 (ATCC 43137, reference strain). Kind of assay: MIC, broth-microdilution (CLSI VET01-A4), strain PM 6391. Type of assay: cell-based. The note with it: Pasteurella multocida strain PM 6391, broth-microdilution; unit assumed. Put shortly: as §1
As to `CC(C)([C@H](NC(=O)c1ccc(C#Cc2ccc(CNCc3ccncc3)s2)cc1)C(=O)NO)S(C)(=O)=O` [Compound 317], the MIC PM 6391 is ≤ 0.1 µg/mL.

`CC(C)[C@H](NC(=O)c1ccc(C#Cc2ccc(CNC3CCC3)cc2)cc1)C(=O)NO` [Compound 210] returned an MIC PM 6391 of 0.2 µg/mL (≈ 0.477 µM).

Compound `CON=C(C)[C@H](NC(=O)c1ccc(C#Cc2ccc(CNCc3ccc(C)cc3)cc2)cc1)C(=O)NO` [Compound 393] yielded an MIC PM 6391 of 0.2 µg/mL (≈ 0.401 µM).

In turn, `CC(C)(C(NC(=O)c1ccc(C#Cc2ccc(CNCc3cccs3)cc2)cc1)C(=O)NO)[N+](=O)[O-]` (stereo not shown) [Compound 289] showed an MIC PM 6391 of 0.4 µg/mL (≈ 0.79 µM).

A further assay has as its system Pasteurella multocida PM 10775 (080130003051, BRD field isolate). Kind of assay: MIC, broth-microdilution (CLSI VET01-A4), strain PM 10775. Type of assay: cell-based. The note with it: Pasteurella multocida strain PM 10775, broth-microdilution; unit assumed. Put shortly:
as §1
As to `CC(C)([C@H](NC(=O)c1ccc(C#Cc2ccc(CNCc3ccncc3)s2)cc1)C(=O)NO)S(C)(=O)=O` [Compound 317], the MIC PM 10775 was ≤ 0.1 µg/mL.

Take `CC(C)[C@H](NC(=O)c1ccc(C#Cc2ccc(CNC3CCC3)cc2)cc1)C(=O)NO` [Compound 210]: the MIC PM 10775 was ≤ 0.1 µg/mL.

The compound `CON=C(C)[C@H](NC(=O)c1ccc(C#Cc2ccc(CNCc3ccc(C)cc3)cc2)cc1)C(=O)NO` [Compound 393] came in with an MIC PM 10775 of 0.8 µg/mL (≈ 1.6 µM).

As to `CC(C)(C(NC(=O)c1ccc(C#Cc2ccc(CNCc3cccs3)cc2)cc1)C(=O)NO)[N+](=O)[O-]` (stereo not shown) [Compound 289], the MIC PM 10775 stood at 0.4 µg/mL (≈ 0.79 µM).

Another assay deals with Pasteurella multocida PM 12080 (IV102277-0093, BRD field isolate). Kind of assay: MIC, broth-microdilution (CLSI VET01-A4), strain PM 12080. Type of assay: cell-based. The note with it: Pasteurella multocida strain PM 12080, broth-microdilution; unit assumed. Summed up:
as §1
For the compound `CC(C)([C@H](NC(=O)c1ccc(C#Cc2ccc(CNCc3ccncc3)s2)cc1)C(=O)NO)S(C)(=O)=O` [Compound 317], the MIC PM 12080 was ≤ 0.1 µg/mL.

With `CC(C)[C@H](NC(=O)c1ccc(C#Cc2ccc(CNC3CCC3)cc2)cc1)C(=O)NO` [Compound 210], the MIC PM 12080 was ≤ 0.1 µg/mL.

For `CON=C(C)[C@H](NC(=O)c1ccc(C#Cc2ccc(CNCc3ccc(C)cc3)cc2)cc1)C(=O)NO` [Compound 393], the MIC PM 12080 turned out to be 0.4 µg/mL (≈ 0.802 µM).

Regarding `CC(C)(C(NC(=O)c1ccc(C#Cc2ccc(CNCc3cccs3)cc2)cc1)C(=O)NO)[N+](=O)[O-]` (stereo not shown) [Compound 289], the MIC PM 12080 was ≤ 0.1 µg/mL.
